Data reported in US12161630B2, “Methods to control infection using new generation small molecule growth inhibitors” (priority 2017, dated 2024).
≈ marks a conversion by molar mass, not a printed value.

Experiments:
[1] = system: S. typhimurium cell membrane; test: Crystal violet uptake after treatment with lethal dose of SMs; assay type: cell-based; conditions: 1 hr; for reduction of crystal violet uptake: compared to 1% DMSO control
Experimental: To further support the observation obtained with confocal microscopy, the same samples were analyzed using scanning electron microscopy (SEM; FIG. 13P-S). […] Smaller outer membrane vesicles of approximately 20 to 70 nm were also observed covering the surface of the bacteria. […] These conclusions were further supported by measuring the crystal violet uptake and leakage of materials assessed at 260 nm after 1 hr of treatment with a lethal dose of SMs.

[2] = system: Kan^R S. typhimurium; test: Salmonella clearance in one-week-old infected broiler chickens; assay type: in vivo; conditions: 100 μg orally twice daily for 5 days; for Chicken tissues positive for Salmonella: Ceca / Chicken tissues positive for Salmonella: Livers / Chicken tissues positive for Salmonella: Spleens: n = 10; for reduction in Salmonella population inside the ceca: compared to DMSO group
Experimental: FIG. 7. Experimental design of the Salmonella clearance study in one-week-old infected broiler chickens. Salmonella-free chickens were orally infected with 10^4 S. typhimurium units per chickens (0 DPI). After confirmation of the intestinal colonization by Salmonella (1 DPI), ten chicks per treatment were treated twice a day for five days with 100 μg of SMs (3 DPI to 7 DPI). Ceca, liver, and spleen tissues were collected at 8 DPI. DPI: days post-inoculation.
Effect of selected SMs on the survival of S. typhimurium in one-week-old SFP chickens: One-week-old Salmonella-free chickens were orally inoculated with approximately 10^4 Kan^R S. typhimurium bacteria. A rectal swab was collected to confirm the intestinal colonization by Salmonella at one day post-inoculation (DPI). At 3 DPI, chickens were treated orally twice a day for five days with a specific treatment of approximately 920 μg/kg SMs per dose. Details of the treatment groups are described in Table 7. Feeders were taken off one hour before the treatment and put back one hour after the treatment. Following the five days of treatment, chickens were euthanized and tissues were aseptically collected (ceca, liver, and spleen). One of the cecum was immediately stored at −80° C. after sampling for microbiota studies. Ceca, spleens, and livers tissues were suspended in 2, 3, and 5 mL of 1×PBS respectively and grinded. 1 mL of the undiluted homogenized tissue mix was enriched in 9 mL of tetrathionate broth (TTB) medium for 18 hrs at 37° C. The rest of the homogenized tissues were serial ten-fold diluted, plated on XLT4 agar plate supplemented with 50 μg/ml kanamycin, and incubated for 36 hrs at 37° C. Bacterial counts were compared with the DMSO control group.

[3] = system: Salmonella Muenchen; test: MIC and MBC dose-response, serotype Muenchen; assay type: cell-based, Salmonella enterica; conditions: MIC identical to MBC
Experimental: (§1) An overnight Salmonella suspension was normalized at 0.05 OD600 (approximately 3.5×10^7 CFU/ml) with an adjusted M9 minimal broth medium (12.7 mM Na2HPO4 7H2O; 22 mM KH2PO4; 18.7 mM NH4Cl; 2 mM MgSO4; 0.1 mM CaCl2; 0.4% glucose; 0.05% casamino acids). 100 μL of the suspension plus 2 μl of SMs (200 μM) were transferred into each well of a sterile, non-treated, flat bottom 96-well plate. Bacteria alone (negative control, NC), 2% DMSO plus bacteria (DMSO control), 20 μg/ml chloramphenicol or 50 μg/ml kanamycin plus bacteria (positive controls, PC), and M9 medium only were used as control. Plates were incubated in a Sunrise™ Tecan kinetic microplate reader for 12 hrs at 37° C. and the optical density (OD) was measure at 600 nm as described above. Percentage of inhibition=(OD600 SM−OD600 NC)/(OD600 NC)×100. […] Cultures from wells showing no turbidimetric increase were transferred onto a XLT4 agar plate. Plates were incubated at 37° C. for 36 hrs.
(§2) Screens were performed as described in the primary screen. The lowest SM concentration with a static effect was considered as the minimal inhibitory concentration (MIC) and the lowest SM concentration with a cidal effect was considered as the minimal bactericidal concentration (MBC).

[4] = system: Salmonella Anatum; test: MIC and MBC dose-response, serotype Anatum; assay type: cell-based, Salmonella enterica; conditions: MIC identical to MBC
Experimental: as §1, §2

[5] = system: Salmonella Javiana; test: MIC and MBC dose-response, serotype Javiana; assay type: cell-based, Salmonella enterica; conditions: MIC identical to MBC
Experimental: as §1, §2

[6] = system: Salmonella Albany; test: MIC and MBC dose-response, serotype Albany; assay type: cell-based, Salmonella enterica; conditions: MIC identical to MBC
Experimental: as §1, §2

[7] = system: Salmonella Saint-Paul; test: MIC and MBC dose-response, serotype Saint-Paul; assay type: cell-based; conditions: MIC identical to MBC
Experimental: as §1, §2

[8] = system: S. typhimurium WT internalized in Caco-2 cells; test: S. typhimurium intracellular survival in infected Caco-2 cells; assay type: cell-based; conditions: S. Typhimurium-infected Caco-2 cells, 24 hrs treatment
Experimental: Effect of the four SMs on S. typhimurium intracellular survival in cells lines: The ability of four SMs to clear S. typhimurium WT […] was evaluated using three cell lines (Caco-2 cells, HD11, and THP-1 cells). The Salmonella intracellular survival as assessed as described (13). A multiplicity of infection “MOI” of 10 was used. Infected cells were treated with 1 μl of SMs (final concentration ranged between 100 μM and 6.25 μM) at 37° C. for 24 hrs in humidified, 5% CO2 incubator. Following incubation, cells were washed once with 150 μl of 1×PBS, lysed with 0.1% Triton-100X, serial ten-fold diluted in 1×PBS, and plated on agar plate. Plates were incubated at 37° C. for 24 hrs to determine the intracellular survival. Cells not infected and not treated, and cells infected and treated with 2% DMSO were used as controls.

[9] = system: S. typhimurium WT; test: High-throughput primary screen for S. typhimurium growth inhibitors at 200 μM; assay type: cell-based, Salmonella enterica subsp. enterica serovar Typhimurium LT2; conditions: adjusted M9 minimal broth, 12 hrs, 37° C., bactericidal = 100% growth inhibition and no growth on XLT4 agar, bacteriostatic = 100% growth inhibition but growth on XLT4 agar
Experimental: Identification of S. typhimurium growth inhibitors: The 4182 small molecules (SMs) were screened at 200 μM against S. typhimurium WT using HTS assay in a 96-well plate format. An overnight Salmonella suspension was normalized at 0.05 OD600 (approximately 3.5×10^7 CFU/ml) with an adjusted M9 minimal broth medium (12.7 mM Na2HPO4 7H2O; 22 mM KH2PO4; 18.7 mM NH4Cl; 2 mM MgSO4; 0.1 mM CaCl2; 0.4% glucose; 0.05% casamino acids). 100 μL of the suspension plus 2 μl of SMs (200 μM) were transferred into each well of a sterile, non-treated, flat bottom 96-well plate. Bacteria alone (negative control, NC), 2% DMSO plus bacteria (DMSO control), 20 μg/ml chloramphenicol or 50 μg/ml kanamycin plus bacteria (positive controls, PC), and M9 medium only were used as control. Plates were incubated in a Sunrise™ Tecan kinetic microplate reader for 12 hrs at 37° C. and the optical density (OD) was measure at 600 nm as described above. Percentage of inhibition=[…]. SMs were identified as growth inhibitors if their inhibition value after incubation was above 20% (value representing the inhibition level monitored with the DMSO controls). Cultures from wells showing no turbidimetric increase were transferred onto a XLT4 agar plate. Plates were incubated at 37° C. for 36 hrs.

[10] = system: Salmonella Newport; test: MIC and MBC dose-response, serotype Newport; assay type: cell-based, Salmonella enterica; conditions: MIC identical to MBC
Experimental: as §1, §2

SMILES | reduction of crystal violet uptake [1] [fold] | Chicken tissues positive for Salmonella: Ceca [2] [%] | Chicken tissues positive for Salmonella: Livers [2] [%] | Chicken tissues positive for Salmonella: Spleens [2] [%] | MIC/MBC [3] [µM] | MIC/MBC [4] [µM] | MIC/MBC [5] [µM] | MIC/MBC [6] [µM] | MIC/MBC [7] [µM] | MBC (μm), Caco-2 cells [8] [µM] | Effect on S. Typhimurium at 200 μM [9] | MIC/MBC [10] [µM] | reduction in Salmonella population inside the ceca [2] | increase in permeability (crystal violet uptake) ([1]; compared to 1% DMSO-treated cells) [fold]
CCCCCCCCCCCCCCCCn1c[n+](C)c2ccccc21.[Br-] [SM4, 1-hexadecyl-3-methyl-1H-3,1-benzimidazol-3-ium bromide] | 2.01 | 40 | 30 | 20 | 25 | 10 | 10 | 10 | 10 | 25 | Bactericidal | 25 |  | 
CCCCCCCCCCCCCCCC[n+]1ccn(CC#N)c1.[Cl-] [SM3, 1-(cyanomethyl)-3-hexadecyl-1H-imidazol-3-ium chloride] | 4.46 | 80 | 60 | 50 | 50 | 25 | 25 | 25 | 50 | 50 | Bactericidal | 50 | did not show any reduction | 
CC1CCC(C(C)C)C(OC(=O)Cn2c[n+](CC(=O)OC3CC(C)CCC3C(C)C)c3ccccc32)C1.[Cl-] (centres unmarked) [SM1, 1,3-bis{2-[(2-isopropyl-5-methylcyclohexyl)oxy]-2-oxoethyl}-1H-3,1-benzimidazol-3-ium chloride] | 1.88 | 90 | 40 | 50 | 100 | 100 | 100 | 100 | 100 | 25 | Bactericidal | 100 | did not show any reduction | 
CCOc1cc(/C=N/N=C(N)N)ccc1OCc1ccc(Cl)cc1 [SM5, N″-{4-[(4-chlorobenzyl)oxy]-3-ethoxybenzylidene}carbonohydrazonic diamide] |  | 70 | 40 | 30 | 50 (≈ 17.3 µg/mL) | 50 (≈ 17.3 µg/mL) | 50 (≈ 17.3 µg/mL) | 100 (≈ 34.7 µg/mL) | 50 (≈ 17.3 µg/mL) | 12.5 (≈ 4.34 µg/mL) | Bactericidal | 50 (≈ 17.3 µg/mL) |  | 2.32
